According to US20100062462A1, “IMMUNODEFICIENCY VIRUSES” (priority 2005, published 2010):

How the values were obtained:
Jurkat T cells = test: active caspase-3 and casp8p41 in Jurkat T cells treated with apoptotic stimuli, flow cytometry; type: cell-based; details: for casp8p41 immunoreactivity: same stimuli, 10 μM campothecin for 8 hours; for apoptosis, as determined by activation of caspase-3: 50 ng/mL TNF-α plus 5 μg/mL cycloheximide, 100 ng/mL SuperKillerTRAIL, 250 ng/mL anti-Fas CH-11, 2 μM Tat, 1 μg/mL gp120 for 8 hours, 10 μM Vpr-derived peptide 4 hours
Procedure: It was determined whether casp8p41 is generated in response to other apoptotic stimuli. Jurkat T cells (10^6) were treated with 10 μM campothecin, 100 ng/mL SuperKillerTRAIL™ (Axxora), 250 ng/mL anti-Fas antibody CH-11 (Upstate Cell Signaling Solutions), 50 ng/mL TNF-α (R&D Systems) plus 5 μg/mL cycloheximide, 2 μM HIV Tat (NIH AIDS Research and Reference Reagent Program), 1 μg/mL of HIV gp120 (ImmunoDiagnostic), or vehicle controls for 8 hours at 37° C. For Vpr-induced apoptosis, Jurkat T cells were incubated with isotonic glucose-Hepes buffer (2.4% glucose, 13 mM Hepes, 68 mM NaCl, 1.3 mM KCl, 4 mM Na2HPO4, and 0.7 mM KH2PO4, pH 7.2) alone or containing 10 μM of Vpr-derived peptide (amino acids 61-75; NIH AIDS Research and Reference Reagent Program) for 4 hours at 37° C. After the incubation, cells were washed in PBS and incubated overnight at 37° C. After incubation for the indicated times, cells were fixed in 2% paraformaldehyde at 4° C. overnight. To determine the presence of casp8p41 on apoptotic cells, cells were permeabilized with PBS+0.1% NP-40 on ice for two minutes. Cells were then incubated with the mouse anti-casp8p41 antibody, followed by PE-labeled goat anti-mouse antibody (Becton Dickinson ImmunoCytochemistry) and FITC-labeled rabbit anti-active caspase-3 antibody.

HIV protease = target: T1, HIV protease (Human immunodeficiency virus type 1 group M subtype B, UniProt P04585); test: casp8p41 production in Jurkat T cells transfected with HIV protease, flow cytometry; type: cell-based; details: Jurkat T cells transfected with pEYFP-protease; 7 μM Nelfinavir or 20 μM Z-VAD-fmk added immediately following transfection; assessed the following morning
T1 construct: Jurkat T cells were transfected with 1 μg of pEYFP-protease per 10^7 cells; EYFP; expressed in transfected cells; host or cells: Jurkat T cells
Procedure: To determine whether casp8p41 is produced specifically as a consequence of HIV-PR activity, as opposed to being produced as a consequence of apoptotic processing of procaspase 8, casp8p41 expression was assessed following HIV-PR transfection in the presence or absence of HIV-PR inhibitor, Nelfinavir, or the pan-caspase inhibitor, z-VAD-fmk. Jurkat T cells were transfected with 1 μg of pEYFP-protease per 10^7 cells using a square wave electroporator (BTX) at 320 V for 10 msec. Immediately following transfection, 7 μM Nelfinavir or 20 μM Z-VAD-fmk was added. The following morning, casp8p41 was assessed by flow cytometry.

Row | Compound | casp8p41 immunoreactivity (Jurkat T cells) | apoptosis, as determined by activation of caspase-3 (Jurkat T cells) | casp8p41 production (HIV protease)
1 | CC[C@@]1(O)C(=O)OCc2c1cc1n(c2=O)Cc2cc3ccccc3nc2-1 [campothecin] | casp8p41 was not produced | – | –
2 | TNF-α | did not generate casp8p41 immunoreactivity | did indeed induce apoptosis | –
3 | TRAIL | did not generate casp8p41 immunoreactivity | did indeed induce apoptosis | –
4 | Cc1c(O)cccc1C(=O)N[C@@H](CSc1ccccc1)[C@H](O)CN1C[C@H]2CCCC[C@H]2C[C@H]1C(=O)NC(C)(C)C [Nelfinavir] | – | – | abrogated casp8p41 production
5 | Z-VAD-fmk | – | – | did not alter casp8p41 production
